Reference: article PMC7930822, “Phase I Trial to Evaluate the Tolerance, Pharmacokinetics and Efficacy of the Broad-Spectrum ErbB Family Inhibitor Larotinib Mesylate in Patients With Advanced Solid Tumors” (Frontiers in Pharmacology, 2021)
Structures can show the parent of a compound that is named as a salt. Where two headings read alike, the source gives them in different places.

Assays:
Sprague–Dawley rats = settings: rat, in vivo
Protocol: (§1) Animal toxicology studies of larotinib mesylate were conducted in both Sprague–Dawley rats and beagle dogs. […] The maximal tolerable doses (MTDs) were 20 and 25 mg/kg in Sprague–Dawley rats and beagle dogs, respectively.
(§2) According to the guidance for clinical trials of antitumor agents published by the Center for Drug Evaluation and Research in China, for cytotoxic antitumor agents, the initial dose in a phase I study can be calculated as 1/10 of the MTD in rodents or 1/6 of the MTD in non-rodent animals ([CFDA, 2012]). For non-cytotoxic antitumor agents, because of their relatively lower toxicity, the initial dose can be set higher. According to the reported preclinical results for larotinib mesylate, the MTD in Sprague–Dawley rats translated to a human equivalent dose of 192 mg/d according to body surface area (calculated by 60 kg body weight), for which 1/10 is 19.2 mg/d ([FDA, 2005]). […] Taking the above results for the toxicology, preclinical pharmacology and pharmacodynamics, and drug specifications (10, 50 and 100 mg) of larotinib mesylate into account, we calculated a recommended starting dose of 50 mg larotinib mesylate for a phase I, first-in-human clinical study, lower than human equivalent 1/6 MTD translated from beagle dogs and near the human equivalent effective dose translated from tumor-bearing mice. […]

beagle dogs [1] = settings: dog, in vivo
Protocol: as §1, §2

[2] = system: patients with advanced solid tumors; experiment: phase I safety and tolerance (NCI CTCAE version 4.03, DLTs); format: in vivo, human
Protocol: This was a phase I, single-center, open-label, dose-escalation study conducted at First Hospital of Jilin University, China (registration no.: ChiCTR-OPC-15007153 registered at http://www.chictr.org.cn). Larotinib mesylate hard capsules were produced and supplied by Sunshine Lake Pharma Co., Ltd (Guangdong Province, China) in different unit doses of […] under GMP condition. Seven dose levels were designed in the study: 50, 100, 150, 220, 300, 350, and 400 mg with administration stages labeled cycle 0, cycle 1, and subsequent treatment cycles. Patients received an oral single dose of larotinib mesylate after fasting during a 6-days cycle 0 to evaluate the tolerance and pharmacokinetic characteristics. After cycle 0, larotinib mesylate was continuously administered once daily for 28 days in cycle 1, and the tolerance and pharmacokinetic characteristics of multiple doses were evaluated (Figure 2). The patients who […] disease control (complete response [CR], partial response [PR], or stable disease [SD]) at the end of cycle one were permitted to participate in the subsequent 28-days treatment cycles until progressive disease (PD) or intolerance was observed.
We enrolled three to six patients for each dose level, with the goal of having at least three patients complete the cycle 0 and cycle 1 treatments. We made an enrollment regulation for the extra patients (>3) according to the study stage of the last enrolled patient in the present dose level: If the patient had finished cycle 1 day 22, extra screened patients would be enrolled to the next dose level; if not, the current dose level would be selected. If 1/3 of patients experienced a DLT in cycle 0 or cycle 1, expansion to six patients was required for the current dose level.
DLTs were observed according to the NCI CTCAE version 4.03 and defined as the emergence of any of the following drug-related AEs: hematological toxicity including Grade ≥3 neutropenia or thrombocytopenia and other Grade ≥4 hematological toxicity; nonhematological toxicities including Grade ≥2 atrioventricular block or renal injury; Grade ≥2 nausea, emesis, or diarrhea for ≥7 days despite optimal treatment; Grade ≥3 nausea, emesis, diarrhea, or rash despite supportive care; and alanine aminotransferase (ALT) or aspartate aminotransferase (AST) elevation by more than 5 times the upper limits of normal for ≥7 days and other Grade ≥3 nonhematological toxicities.
Safety was assessed according to the NCI CTCAE version 4.03 including AEs, vital signs, and results from 12-lead […], cardiac ultrasound, physical examination, ophthalmic testing, and clinical laboratory tests. Dosage adjustments could be applied from cycle 2 according to the severity of the toxicities. Drug administration would be suspended when drug-related AEs were graded at 3 or 4, and the original dose or reduction dose would be given if the AEs returned to baseline or Grade 1 (nonhematological toxicities)/grade 2 (hematological toxicities) within 14 days.

wild-type EGFR = system: wild-type EGFR; parameters: method as in data not published; settings: ref data not published, cited from earlier work
[3] = system: EGFR with the L861Q mutation; parameters: method as in data not published; settings: ref data not published; cited from earlier work
[4] = target: receptor-interacting serine/threonine-protein kinase 2 (RIPK2); parameters: method as in data not published; settings: ref data not published; cited from earlier work
[5] = target: interleukin-1 receptor-associated kinase 1 (IRAK1); parameters: method as in data not published; settings: ref data not published; cited from earlier work
beagle dogs [6] = system: beagle dogs; parameters: method as in data not published; settings: ref data not published, cited from earlier work
tumor-bearing mice = system: tumor-bearing mice; parameters: method as in data not published; settings: dose of 18 mg/kg, ref data not published; cited from earlier work
CYP3A4 = system: CYP3A4; parameters: method as in data not published; settings: in vitro studies; ref data not published; cited from earlier work

COc1cc2ncnc(Nc3ccc(F)c(Cl)c3)c2cc1OCCCN1C[C@@H]2OCCO[C@@H]2C1 [larotinib mesylate]
human equivalent dose of MTD (Sprague–Dawley rats): 192 mg/day | human equivalent dose of MTD (beagle dogs [1]): 810 mg/day | MTD in patients ([2]; 50–400 mg/d oral): no MTD established | Grade 3 drug-related decreased lymphocytes ([2]; human, in vivo): 12% | Grade 3 drug-related diarrhea ([2]; human, in vivo): 4% | Grade 3 drug-related nausea ([2]; human, in vivo): 4% | drug-related acne-like rash, incidence ([2]; human, in vivo): 68.0% | drug-related anemia, incidence ([2]; human, in vivo): 48.0% | drug-related decreased lymphocyte percentage, incidence ([2]; human, in vivo): 40.0% | drug-related diarrhea, incidence ([2]; human, in vivo): 48.0% | drug-related hand-foot skin reaction, incidence ([2]; human, in vivo): 44.0% | drug-related hypoalbuminemia, incidence ([2]; human, in vivo): 32.0% | drug-related nausea, incidence ([2]; human, in vivo): 36.0% | drug-related paronychia, incidence ([2]; human, in vivo): 48.0% | drug-related stomatitis, incidence ([2]; human, in vivo): 44.0% | drug-related weight loss, incidence ([2]; human, in vivo): 32.0% | patients with Grade 3 drug-related AEs ([2]; human, in vivo): 20% | patients with at least one drug-related AE ([2]; human, in vivo): 96% | IC50 (wild-type EGFR; EGFR as the main target): 0.6 nM | IC50 (wild-type EGFR; wild-type EGFR): 0.611 nM | IC50 [3]: 0.423 nM | IC50 [4]: 26.6 nM | IC50 [5]: 167 nM | lowest observed adverse effect level (LOAEL) (beagle dogs [6]; daily administration): 5 mg/kg | maximal tolerable dose (MTD) (beagle dogs [6]): 25 mg/kg | tumor-inhibiting rate (tumor-bearing mice): exceeding 60% | fraction metabolized by CYP3A4 (CYP3A4): around 85%
